# Literature values in patent US20160199460A1, “COMPOSITIONS FOR REDUCING THE DELETERIOUS EFFECTS OF STRESS AND AGING” (HydroPep, LLC, priority 2010, published 2016).
# System: aging individuals (>50 years of age)
# Settings: oral D-ribose; aging individuals (>50 years of age) with tiredness for at least one month
structure (smiles),measurement,value
O=C[C@H](O)[C@H](O)[C@H](O)CO [D-ribose],Physical fatigue and mental outlook,lessening physical fatigue
